Source: publication PMC10942119, “S-nitrosylation of a receptor-like cytoplasmic kinase regulates plant immunity” (Science Advances, 2024)
One block for each molecule: values may come before it.

What was measured:
BIK1 (MBP-BIK1) [1] = target: T1, BIK1 (MBP-BIK1) (Arabidopsis thaliana, UniProt O48814); experiment: biotin switch; assay type: binding; conditions: covalent; NO donor, S-nitrosylates cysteine; HEN buffer pH 7.7, 30 min, dark
T1 construct: coding region of BIK1, HisMBP-tagged (pDEST-HisMBP; a 6xHis version from pDEST17 was also made), tag kept, E. coli BL21(DE3)
T1 sequence (O48814 1-395): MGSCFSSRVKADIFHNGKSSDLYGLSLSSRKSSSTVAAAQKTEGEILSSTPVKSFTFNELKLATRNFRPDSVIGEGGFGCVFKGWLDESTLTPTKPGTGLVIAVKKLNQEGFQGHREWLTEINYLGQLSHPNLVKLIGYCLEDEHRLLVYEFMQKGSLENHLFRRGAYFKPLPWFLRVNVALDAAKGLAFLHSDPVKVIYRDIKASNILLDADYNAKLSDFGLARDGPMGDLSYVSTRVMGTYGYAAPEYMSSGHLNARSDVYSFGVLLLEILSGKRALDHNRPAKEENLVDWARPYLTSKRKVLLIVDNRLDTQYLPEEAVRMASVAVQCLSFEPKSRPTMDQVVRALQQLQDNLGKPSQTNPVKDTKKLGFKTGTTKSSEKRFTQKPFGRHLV

BIK1 (MBP-BIK1) [2] = target: T1, BIK1 (MBP-BIK1); experiment: biotin switch (anti-biotin Western blot); in vitro autophosphorylation assay; assay type: biochemical; conditions: covalent; NO donor, S-nitrosylates cysteine, reversed by DTT; raises autophosphorylation; HEN buffer pH 7.7, 30 min, dark
BIK1 (MBP-BIK1) [3] = target: T2, BIK1 (MBP-BIK1) (Arabidopsis thaliana, UniProt O48814, K105E); experiment: biotin switch; assay type: binding; conditions: covalent; NO donor (donor not named for this figure; GSNO in the same passage); kinase-dead mutant, GSNO gave no autophosphorylation
T2 construct: coding region of BIK1, HisMBP-tagged (pDEST-HisMBP; a 6xHis version from pDEST17 was also made), tag kept, E. coli BL21(DE3)
T2 sequence (O48814 1-395 K105E): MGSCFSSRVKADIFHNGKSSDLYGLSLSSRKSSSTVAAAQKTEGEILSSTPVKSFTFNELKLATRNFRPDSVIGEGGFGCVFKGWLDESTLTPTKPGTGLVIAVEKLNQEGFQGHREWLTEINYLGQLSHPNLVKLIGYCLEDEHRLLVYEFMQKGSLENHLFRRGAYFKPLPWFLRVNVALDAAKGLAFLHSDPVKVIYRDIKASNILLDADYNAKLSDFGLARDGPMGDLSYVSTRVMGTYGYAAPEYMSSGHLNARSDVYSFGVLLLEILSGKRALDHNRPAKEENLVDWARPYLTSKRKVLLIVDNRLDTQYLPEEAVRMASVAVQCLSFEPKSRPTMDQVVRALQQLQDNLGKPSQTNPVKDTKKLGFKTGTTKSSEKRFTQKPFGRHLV

[4] = target: T3, GSNO-pretreated MBP-BIK1 (S-nitrosylated BIK1, BIK1-SNO) (Arabidopsis (Col-0 cDNA), UniProt O48814 1-395, S-nitrosylation by GSNO pre-treatment; the paper assigns S-nitrosylation to Cys80); experiment: pull-down; GST-RB-N on Glutathione Sepharose 4B incubated with MBP or MBP-BIK1 (untreated or pretreated with 10 uM GSNO or 100 uM DTT); 30 mM Hepes, 100 mM NaCl, 0.2% Triton X-100, pH 7.5; 4°C, 4 hours, dark; anti-MBP immunoblot; conditions: both partners purified
T3 construct: botrytis-induced kinase 1 (BIK1), Arabidopsis; coding region amplified from Col-0 cDNA; same construct as m1; Same protein as m1 after treatment with the NO donor; which cysteines carried SNO in this sample was not determined in the pull-down itself
T3 sequence (looked up): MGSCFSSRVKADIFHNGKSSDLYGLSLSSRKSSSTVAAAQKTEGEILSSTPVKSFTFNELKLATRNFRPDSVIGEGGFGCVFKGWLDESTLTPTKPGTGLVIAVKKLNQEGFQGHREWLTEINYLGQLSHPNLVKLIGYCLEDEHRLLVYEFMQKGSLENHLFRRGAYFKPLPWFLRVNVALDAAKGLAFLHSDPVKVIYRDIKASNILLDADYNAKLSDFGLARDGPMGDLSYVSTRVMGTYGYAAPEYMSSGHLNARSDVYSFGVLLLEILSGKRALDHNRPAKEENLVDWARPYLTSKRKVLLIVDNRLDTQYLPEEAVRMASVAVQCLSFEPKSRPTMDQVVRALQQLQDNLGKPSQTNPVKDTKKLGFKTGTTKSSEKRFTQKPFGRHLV

[5] = target: T4, MBP-BIK1 (recombinant botrytis-induced kinase 1 fused to maltose binding protein) (Arabidopsis (Col-0 cDNA), UniProt O48814 1-395); experiment: as above; conditions: both partners purified
T4 construct: botrytis-induced kinase 1 (BIK1), Arabidopsis; coding region amplified from Col-0 cDNA; The text calls the protein in the pull-down pBIK1 as well; a phosphorylation state of the recombinant protein is not defined; also called recombinant BIK1; pDEST-HisMBP-BIK1; source: E. coli BL21(DE3), purified (amylose magnetic beads)
T4 sequence (looked up): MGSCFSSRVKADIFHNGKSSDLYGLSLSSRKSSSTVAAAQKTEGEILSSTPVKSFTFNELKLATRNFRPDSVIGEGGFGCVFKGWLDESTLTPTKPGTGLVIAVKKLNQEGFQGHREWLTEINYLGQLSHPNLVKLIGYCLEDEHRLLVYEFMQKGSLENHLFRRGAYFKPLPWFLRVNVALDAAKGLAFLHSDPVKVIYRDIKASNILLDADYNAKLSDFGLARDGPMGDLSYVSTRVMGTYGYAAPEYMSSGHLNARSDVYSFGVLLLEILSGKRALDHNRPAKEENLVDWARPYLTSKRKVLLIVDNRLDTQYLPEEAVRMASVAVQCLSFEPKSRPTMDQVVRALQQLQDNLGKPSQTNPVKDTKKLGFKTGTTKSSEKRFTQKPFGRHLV

Molecule: N[C@@H](CSN=O)C(=O)O [Cys-NO]
biotin switch (BIK1 (MBP-BIK1) [1]): The natural NO donor, Cys-NO, also S-nitrosylated BIK1 in vitro

Molecule: N[C@@H](CCC(=O)N[C@@H](CSN=O)C(=O)NCC(=O)O)C(=O)O [GSNO]
biotin switch (anti-biotin Western blot); in vitro autophosphorylation assay (BIK1 (MBP-BIK1) [2]): BIK1 was S-nitrosylated in a concentration-dependent fashion by GSNO
biotin switch (BIK1 (MBP-BIK1) [3]): NO induced S-nitrosylation of BIK1^K105E (fig. S6F)

binding result [4]: binds
binding result [5]: binds
B1: GST-RBOHD-N (GST-tagged N terminus of respiratory burst oxidase homolog D) (domain or fragment, Arabidopsis, UniProt Q9FIJ0 1-376, looked up)
chain: MKMRRGNSSNDHELGILRGANSDTNSDTESIASDRGAFSGPLGRPKRASKKNARFADDLPKRSNSVAGGRGDDDEYVEITLDIRDDSVAVHSVQQAAGGGGHLEDPELALLTKKTLESSLNNTTSLSFFRSTSSRIKNASRELRRVFSRRPSPAVRRFDRTSSAAIHALKGLKFIATKTAAWPAVDQRFDKLSADSNGLLLSAKFWECLGMNKESKDFADQLFRALARRNNVSGDAITKEQLRIFWEQISDESFDAKLQVFFDMVDKDEDGRVTEEEVAEIISLSASANKLSNIQKQAKEYAALIMEELDPDNAGFIMIENLEMLLLQAPNQSVRMGDSRILSQMLSQKLRPAKESNPLVRWSEKIKYFILDNWQR
notes: respiratory burst oxidase homolog D (RBOHD), Arabidopsis; 1128 bp make 376 codons; also called GST-RB-N; N-RBOHD; source: E. coli BL21(DE3), purified (Glutathione Sepharose 4B)
